Experiments:
[1] = molecular target: yeast α-glucosidase (Saccharomyces cerevisiae, UniProt P53341); assay: In vitro α-glucosidase inhibition assay (PNPG substrate); format: biochemical; design: inhibition: dose or concentration left out as unconfirmed; settings: for IC50: dose-response 0–25 µg/mL
Method: α-Glucosidase inhibition was tested according to previously reported methods with some modifications. […] Fifty microliters of yeast α-glucosidase enzyme solution (0.5 U/mL in phosphate buffer) was added to the wells. The plate was incubated at 37 °C for 15 min. Next, 25 µL of 2.5 mM PNPG (4-nitrophenyl α-D-glucopyranoside) substrate solution (in phosphate buffer) was added. The microplate was incubated at 37 °C for another 15 min. The absorbance was then measured using a microplate reader at 405 nm. The percentage inhibition was calculated using the formula: % inhibition = ΔAbscontrol−ΔAbssample/ΔAbscontrol × 100
All measurements were performed in triplicates and the values. The IC50 values for selected CSEs were calculated by plotting a dose-response curve for a range of concentrations of the CSEs (0–25 µg/mL) for the selected CSEs (data not shown) and regression analysis was done using Graphpad Prism software using the in-built function.

[2] = molecular target: T1, porcine pancreatic α-amylase (Sus scrofa, UniProt P00690); assay: In vitro α-amylase inhibition assay (starch/DNSA); format: biochemical; design: inhibition: dose or concentration left out as unconfirmed; settings: for IC50: dose-response 0–25 µg/mL
T1 sequence (P00690 16-511): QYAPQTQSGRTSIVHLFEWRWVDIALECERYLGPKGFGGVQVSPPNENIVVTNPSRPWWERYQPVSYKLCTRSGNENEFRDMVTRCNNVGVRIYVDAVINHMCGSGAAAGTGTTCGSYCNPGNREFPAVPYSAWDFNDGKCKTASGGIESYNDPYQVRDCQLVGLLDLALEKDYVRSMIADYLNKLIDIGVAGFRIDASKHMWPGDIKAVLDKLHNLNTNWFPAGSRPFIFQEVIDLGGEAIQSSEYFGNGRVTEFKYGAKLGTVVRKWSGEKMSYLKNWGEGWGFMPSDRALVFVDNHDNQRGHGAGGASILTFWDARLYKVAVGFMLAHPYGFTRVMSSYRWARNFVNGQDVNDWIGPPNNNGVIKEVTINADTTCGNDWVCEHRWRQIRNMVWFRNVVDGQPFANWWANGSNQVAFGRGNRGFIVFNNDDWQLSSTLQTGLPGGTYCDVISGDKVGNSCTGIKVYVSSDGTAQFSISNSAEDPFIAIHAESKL
Method: α-amylase inhibition was tested using previously reported methods […] The tubes were then incubated at 37 °C for 10 min. Next, 450 µL of 0.5% starch solution was added and the tubes were incubated for a further 20 min at 37 °C. Finally, 500 µL of Dinitro Salicylic Acid (DNSA) reagent was added and the tubes were placed in a boiling water bath for 15 min. The absorbance of the tubes was recorded at 540 nm and the % inhibition calculated using the same formula as for α-glucosidase, % inhibition = ΔAbscontrol−ΔAbssample/ΔAbscontrol × 100
All measurements were performed in triplicates and the values.

[3] = system: STZ-treated mice; design: method as in earlier work; settings: STZ-treated mice compared to control (starch only) mice; cited from earlier work
[4] = 25 μg/mL, mean ± SD, n = 3, less than 5% inhibition = No Significant Activity

Sequence of yeast α-glucosidase (P53341 whole entry): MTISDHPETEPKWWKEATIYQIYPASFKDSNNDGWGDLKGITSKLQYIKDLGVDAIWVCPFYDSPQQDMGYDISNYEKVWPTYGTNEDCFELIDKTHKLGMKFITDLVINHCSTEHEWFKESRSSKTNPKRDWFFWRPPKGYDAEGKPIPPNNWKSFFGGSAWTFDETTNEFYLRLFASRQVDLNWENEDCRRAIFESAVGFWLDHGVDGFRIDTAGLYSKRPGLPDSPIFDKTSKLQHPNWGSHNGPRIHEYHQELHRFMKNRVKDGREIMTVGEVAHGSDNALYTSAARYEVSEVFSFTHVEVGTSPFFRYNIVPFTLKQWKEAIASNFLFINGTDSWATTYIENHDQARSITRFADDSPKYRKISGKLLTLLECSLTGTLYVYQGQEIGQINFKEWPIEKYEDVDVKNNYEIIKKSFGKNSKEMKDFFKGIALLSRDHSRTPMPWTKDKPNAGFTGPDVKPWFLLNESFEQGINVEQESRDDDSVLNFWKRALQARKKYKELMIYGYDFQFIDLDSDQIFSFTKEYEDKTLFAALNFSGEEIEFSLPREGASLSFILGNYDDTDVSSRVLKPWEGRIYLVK

CC1(C)OCC2OC3OC4(COC(C)(C)OC3C(OC(=O)C=Cc3ccccc3)C2O1)OC(COC(=O)C=Cc1ccccc1)C(OC(=O)C=Cc1ccccc1)C4OC(=O)C=Cc1ccccc1 (stereo not shown) [CSE 5]
inhibition [1]: 77 ± 5% | α-glucosidase IC50, fold lower than acarbose [1]: over 36 fold | IC50 ([1]; mean ± SD, n = 3): 9 ± 3 µM | inhibition [2]: 98 ± 2% | α-amylase IC50, fold less than acarbose [2]: five-fold less | IC50 ([2]; mean ± SD, n = 3): 1000 ± 200 nM

CC(=O)O[C@@H]1[C@H]2OC(C)(C)OC[C@@]3(O[C@H]2O[C@@H]2COC(C)(C)O[C@@H]12)O[C@H](COC(=O)/C=C/c1ccccc1)[C@@H](OC(C)=O)[C@@H]3OC(=O)/C=C/c1ccccc1 [CSE 6]
inhibition [1]: 46 ± 3% | inhibition [2]: 14 ± 4%

CC(=O)O[C@@H]1[C@H]2OC(C)(C)OC[C@@]3(O[C@H]2O[C@@H]2COC(C)(C)O[C@@H]12)O[C@H](COC(=O)/C=C/c1ccccc1)[C@@H](OC(=O)/C=C/c1ccccc1)[C@@H]3OC(=O)/C=C/c1ccccc1 [CSE 7]
inhibition [1]: 46 ± 2% | inhibition [2]: 13 ± 7%

COc1cc(/C=C/C(=O)OC[C@H]2O[C@@](CO)(O[C@H]3O[C@H](CO)[C@@H](O)[C@H](OC(=O)/C=C/c4ccc(O)c(OC)c4)[C@H]3O)[C@@H](OC(=O)/C=C/c3ccc(O)c(OC)c3)[C@@H]2OC(=O)/C=C/c2ccc(O)c(OC)c2)ccc1O [FSE 1]
blood glucose excursion [3]: significantly reduced blood glucose excursion

O=C(C=Cc1ccccc1)OCC1OC(CO)(OC2OC(CO)C(O)C(OC(=O)C=Cc3ccccc3)C2O)C(OC(=O)C=Cc2ccccc2)C1OC(=O)C=Cc1ccccc1 (stereo not shown) [CSE 9]
inhibition [1]: 74 ± 9% | α-glucosidase IC50, fold lower than acarbose [1]: over 36 fold | IC50 ([1]; mean ± SD, n = 3): 9 ± 3 µM | inhibition [2]: 99 ± 1% | α-amylase IC50, fold less than acarbose [2]: five-fold less | IC50 ([2]; mean ± SD, n = 3): 800 ± 100 nM

CC1(C)OC[C@@]2(O[C@H]3O[C@@H]4COC(C)(C)O[C@H]4[C@H](O)[C@H]3O1)O[C@H](COC(=O)/C=C/c1ccccc1)[C@@H](O)[C@@H]2OC(=O)/C=C/c1ccccc1 [CSE 3]
inhibition [1]: 35 ± 5% | inhibition [2]: 9 ± 5%

CC1(C)OC[C@@]2(O[C@H]3O[C@@H]4COC(C)(C)O[C@H]4[C@H](O)[C@H]3O1)O[C@H](COC(=O)/C=C/c1ccccc1)[C@@H](OC(=O)/C=C/c1ccccc1)[C@@H]2OC(=O)/C=C/c1ccccc1 [CSE 4]
inhibition [1]: 32 ± 3% | inhibition [2]: 8 ± 4%

O=C(/C=C/c1ccccc1)OC[C@H]1O[C@@](CO)(O[C@H]2O[C@H](CO)[C@@H](O)[C@H](O)[C@H]2O)[C@@H](OC(=O)/C=C/c2ccccc2)[C@@H]1OC(=O)/C=C/c1ccccc1 [CSE 8]
inhibition [1]: 34 ± 4% | % α-glucosidase inhibition relative to % α-amylase inhibition ([1]; 25 μg/mL, selectivity α-glucosidase over α-amylase): higher inhibition of α-glucosidase than α-amylase | inhibition [2]: 16 ± 2%

C[C@H]1O[C@H](O[C@H]2[C@H](O)[C@@H](O)[C@@H](O[C@H]3[C@H](O)[C@@H](O)C(O)O[C@@H]3CO)O[C@@H]2CO)[C@H](O)[C@@H](O)[C@@H]1N[C@H]1C=C(CO)[C@@H](O)[C@H](O)[C@H]1O (stereo partly shown) [acarbose, reference compound]
inhibition [1]: 27 ± 4% | inhibition at 25 µg/mL ([2]; read-out: % α-amylase inhibition): 93 ± 2%

CC1(C)OC[C@@]2(O[C@H]3O[C@@H]4COC(C)(C)O[C@H]4[C@H](O)[C@H]3O1)O[C@H](COC(=O)/C=C/c1ccccc1)[C@@H](O)[C@@H]2O [CSE 2]
% α-glucosidase inhibition [1, 4]: did not show significant inhibition activity | % α-amylase inhibition [2, 4]: did not show significant inhibition activity

Source: publication PMC7830900, “Cinnamoyl Sucrose Esters as Alpha Glucosidase Inhibitors for the Treatment of Diabetes” (Molecules, 2021)
